# Reference: patent US4566984A, “Ether polycarboxylates” (The Procter & Gamble Company, priority 1984, dated 1986)
# Counter-ions that a name gives are not always drawn.
# Test: Calcium Binding Constants Determination (calcium selective electrode titration)
# Format: physicochemical
# Conditions: for Calcium Ion Binding Constants, Log KCa, pH 9.5 / Calcium Ion Binding Constants, Log KCa, pH 7.6: 35° C., 0.1 M ionic strength
# From the text: A computer system (Hewlett-Packard) with digital voltmeters was used to collect and analyze data from an Orion calcium selective electrode and a linear syringe buret (Sage Instruments syringe pump plus a linear potentiometer). […] Volumetric accuracy was better than +/- 0.5%.
# Three hundred data pairs of [Ca total] vs 10^(E/S), which is a linear measure of [Ca free], were collected and corrected for dilution during each titration. S is the Nernst equation slope, ca. 29 mv/decade, and E is the calcium electrode voltage. Calcium ion was titrated into buffer solution. Here, L represents the sequestering ligand. A ligand-free standard titration calibrated the electrode response. […] A third titration, adding Ca ion to a solution of a fixed [L tot] and fixed [Mg tot] was compared with KCa at different [Ca tot]/[L tot] ratios to reveal KMg at those same ratios. [formula]
# This line was extrapolated back to [Ca free]=0 and [Ca tot] at that point represented a measure of calcium binding capacity.
compound,measurement,value
"O=C(O)COC(CC(=O)O)C(=O)O (stereo not drawn) [2-oxa-1,3,4 butanetricarboxylic acid, sodium salt, reference compound]","Calcium Ion Binding Constants, Log KCa, pH 9.5",4.4
"O=C(O)COC(CC(=O)O)(C(=O)O)C(=O)O [Compound 5, 3,3-dicarboxy-4-oxa-1,6 hexanedioic acid, tetrasodium salt]","Calcium Ion Binding Constants, Log KCa, pH 7.6",5.3
same,"Calcium Ion Binding Constants, Log KCa, pH 9.5",5.5
same,calcium binding relative to sodium tripolyphosphate and sodium nitrilotriacetate,at least equivalent
same,calcium binding relative to two prior art ether carboxylates and sodium citrate,clear advantage in calcium binding
"O=C([O-])C1CCC(C(=O)[O-])C(C(=O)[O-])(C(=O)[O-])O1.[Na+].[Na+].[Na+].[Na+] (stereo not drawn) [Compound 7, Oxacyclohexane-2,2,3,6-tetracarboxylic acid, tetrasodium salt]","Calcium Ion Binding Constants, Log KCa, pH 9.5",6.2
same,calcium binding relative to sodium tripolyphosphate and sodium nitrilotriacetate,at least equivalent
same,calcium binding relative to two prior art ether carboxylates and sodium citrate,clear advantage in calcium binding
"O=C([O-])CN(CC(=O)[O-])CC(=O)[O-].[Na+].[Na+].[Na+] [Nitrilotriacetic acid, sodium salt, reference compound]","Calcium Ion Binding Constants, Log KCa, pH 7.6",3.3
same,"Calcium Ion Binding Constants, Log KCa, pH 9.5",5.5
"O=P(O)(O)OP(=O)(O)OP(=O)(O)O [Sodium tripolyphosphate, reference compound]","Calcium Ion Binding Constants, Log KCa, pH 7.6",3.1
same,"Calcium Ion Binding Constants, Log KCa, pH 9.5",4.9
